SMILES strings stand for the structures.

The values below come from US20240139219A1, “COMBINATION OF A SERCA2 INHIBITOR AND A STING ACTIVATOR FOR USE IN TREATING AND/OR PREVENTING CANCER” (Centre national de la recherche scientifique, priority 2021, published 2024).

Series [1] relates to WT-MEF cells. In words: RT-qPCR of Ifnβ, Cxcl10 and Isg15 mRNA in WT-MEF stimulated with DMXAA. Format: cell-based, murine. The note with it: WT-MEF under DMXAA stimulation (200 μM, 2 h) in combination with CDN-1163 (FIG. 4A). The method, then: WT-MEF cells were cultured 24 h prior 2h stimulation with DMXAA (200 μM) in combination or not with CPA (A-C) or thapsigargin (D-E). Graphs present fold increase Ifnβ, Cxcl10 and Isg15 mRNA levels, as compared to unstimulated cells. Graphs present mean value from duplicates.
WT-MEF cells were cultured 24 h prior 2 h stimulation with DMXAA (200 μM) in combination or not with CDN-1163 (A-C). Graphs present fold increase […], Cxcl10 and Isg15 mRNA levels, as compared to unstimulated cells. Graphs present mean value from duplicates.
(§1) Wild type murine embryonic fibroblasts (WT-MEF) and MEF-Trex^−/−, were maintained in Dulbecco's modified Eagle's medium (DMEM) supplemented with 10% fetal bovine serum (FBS), 1% penicillin/streptomycin and 1% glutamine.
(§2) RNA was extracted using Trizol (Invitrogen) and treated with TURBO DNase (Ambion) according to manufacturer's protocols. Reverse transcription (SuperScript IV reverse transcriptase, Invitrogen) and qPCR using specific primers were performed using SYBR Green Master Mix (Takara) and LightCycler 480 cycler (Roche). mRNA levels were normalized to HSP90 mRNA levels. […]
To this aim, WT-MEFs were treated with the CDN-1163 SERCA2 agonist, and interferon response gene levels were assessed (FIG. 4).

Series [2] concerns the target SERCA2 (Homo sapiens, UniProt P16615). The note with it: read-out: IC50 in vitro for SERCA2 (for calcium entry); cited from earlier work.
Series [3] has as its system Trex1 KO MEFs. The series can be described thus: RT-qPCR of Ifnβ, Cxcl10 and Isg15 mRNA in Trex1 KO MEF (model of chronic STING activation). Format: cell-based, murine. The settings on record: Trex1-deficient MEF, 2 h treatment (FIG. 2). The procedure: MEF^Trexl−/− cells were treated or not with CPA (A-C) or thapisgargin (D-E) for 2 h. Graphs present fold increase Ifnβ, Cxcl10 and Isg15 mRNA levels, as compared to unstimulated cells. Graphs present mean value from duplicates (A-C) or average of 2 independent experiments (D-F). Error bars: standard deviation.
as §1
RNA was extracted using Trizol (Invitrogen) and treated with TURBO DNase (Ambion) according to manufacturer's protocols. Reverse transcription (SuperScript IV reverse transcriptase, Invitrogen) and qPCR using specific primers were performed using SYBR Green Master Mix (Takara) and LightCycler 480 cycler (Roche). mRNA levels were normalized to HSP90 mRNA levels.
WT-MEF stimulated or not with DMXAA, a murine STING ligand which triggers STING-dependent inflammatory responses (FIG. 1); and Trex I KO MEF which is a model of chronic STING activation (FIG. 2).
WT-MEF or Trex I KO MEF were treated for 2 h with SERCA2 inhibitors thapsigargin (TA) or CPA.

The subject of series [4] is KPC murine pancreatic cell line. The series can be described thus: RT-qPCR of Cxcl10 mRNA in KPC cells stimulated with ADUS-100 with or without thapsigargin. The note with it: 6 h, TA 12.5 nM or 6.25 nM in combination with ADU-S100 5 μM (FIG. 7A). Format: cell-based. The method, then: (§3) FIG. 7: Inhibition of SERCA2 (ATP2A2) in combination of STING agonist increases inflammatory responses in cancer cell lines. • (A) The KPC murine pancreatic cell line was cultured 24 h prior to 6 h stimulation with ADUS-100 (5 μM) in combination or not with 12.5 nM or 6.25 nM TA. Graphs present fold increase Cxcl10 mRNA levels, an interferon responding gene, as compared to unstimulated cells. • (B) KPC cells were cultured 24 h prior 6 h stimulation with ADUS-100 (5 μM) in combination or not with 12.5 nM or 6.25 nM TA. Graphs present viability level, as compared to unstimulated cells. • (C) The Panco2 murine pancreatic cell line was cultured 24 h prior to 6 h stimulation with ADUS-100 (5 μM) in combination or not with 12.5 nM or 6.25 nM TA. Graphs present fold increase Cxcl10 mRNA levels, an interferon responding gene, as compared to unstimulated cells. • (D) Panco2 cells were cultured 24 h prior to 6 h stimulation with ADUS-100 (5 μM) in combination or not with 12.5 nM or 6.25 nM TA. Graphs present viability level, as compared to unstimulated cells.
(§4) Murine embryonic fibroblasts (MEF) and murine pancreatic cancer cell lines (KPC and Panc02) were maintained in Dulbecco's modified Eagle's medium (DMEM) supplemented with 10% fetal bovine serum (FBS), 1% penicillin/streptomycin and 1% glutamine. […]

The subject of series [5] is mice. In words: In vivo toxicity, subcutaneous injection, macroscopic observation of skin at the injection site. The settings on record: 3 times one injection every 3 day, TA 50 nM, ADUS-100 5 μM, or both (Combi), data not shown.
Series [6] has as its system mouse embryonic fibroblasts (MEFs). The series can be described thus: RT-qPCR of Ifnβ mRNA in MEFs stimulated with ADUS-100 with or without thapsigargin. It counts as cell-based. The note with it: MEF, 6 h, TA 12.5 nM or 6.25 nM in combination with ADU-S100 5 μM (FIG. 6A). The method, then:
(§5) FIG. 6: Inhibition of SERCA2 (ATP2A2) in combination with STING agonist increases inflammatory responses in mouse embryonic fibroblasts (MEFs). • (A) MEFs were cultured for 24 h prior to 6 h stimulation with ADUS-100 (5 μM) in combination or not with 12.5 nM or 6.25 nM of thapsigargin (TA). Graphs present fold increase lfnβ mRNA levels, as compared to unstimulated cells. • (B) MEFs were cultured for 24 h prior to 6 h stimulation with ADUS-100 (5 μM) in combination or not with 12.5 nM or 6.25 nM of TA. Graphs present viability level, as compared to unstimulated cells.
(§6) Murine embryonic fibroblasts (MEF) and murine pancreatic cancer cell lines (KPC and Panc02) were maintained in Dulbecco's modified Eagle's medium (DMEM) supplemented with 10% fetal bovine serum (FBS), 1% penicillin/streptomycin and 1% glutamine.
(§7) Cells were treated during 6 h with ADUS-100 (5 μM) in presence or not of thapsigargin (TA) at 12.5 nM or 6.25 nM in complete medium.
as §2

Series [7] relates to Panc02 murine pancreatic cell line. The series can be described thus: RT-qPCR of Cxcl10 mRNA in Panc02 cells stimulated with ADUS-100 with or without thapsigargin. Format: cell-based. The settings on record: Panc02, 6 h, TA 12.5 nM or 6.25 nM in combination with ADU-S100 5 μM (FIG. 7C). The method, then: as §3, §4
In series [8] the test system is Panc02 cells. In words: CellTiter-Glo Luminescent Cell Viability Assay in Panc02 cells. The settings on record: ADUS-100 5 μM, TA 12.5 nM or 6.25 nM, single or combined, viability 24 h after treatment (FIG. 7D). It counts as cell-based, murine. The method, then: as §3, §4
The subject of series [9] is KPC cells. In words: CellTiter-Glo Luminescent Cell Viability Assay in KPC cells. Format: cell-based, murine. The note with it: ADUS-100 5 μM, TA 12.5 nM or 6.25 nM, single or combined, viability 24 h after treatment (FIG. 7B). The method, then:
as §3, §4

The test system of series [10] is mouse embryonic fibroblasts (MEFs). In words: CellTiter-Glo Luminescent Cell Viability Assay in MEFs. The note with it: MEF; ADUS-100 5 μM, TA 12.5 nM or 6.25 nM, single or combined; viability 24 h after treatment (FIG. 6B). Format: cell-based. The procedure: as §5, §6, §7
The CellTiter-Glo® Luminescent Cell Viability Assay was used to determine the number of viable cells 24 h after treatment.

Chain of SERCA2 (P16615 whole entry): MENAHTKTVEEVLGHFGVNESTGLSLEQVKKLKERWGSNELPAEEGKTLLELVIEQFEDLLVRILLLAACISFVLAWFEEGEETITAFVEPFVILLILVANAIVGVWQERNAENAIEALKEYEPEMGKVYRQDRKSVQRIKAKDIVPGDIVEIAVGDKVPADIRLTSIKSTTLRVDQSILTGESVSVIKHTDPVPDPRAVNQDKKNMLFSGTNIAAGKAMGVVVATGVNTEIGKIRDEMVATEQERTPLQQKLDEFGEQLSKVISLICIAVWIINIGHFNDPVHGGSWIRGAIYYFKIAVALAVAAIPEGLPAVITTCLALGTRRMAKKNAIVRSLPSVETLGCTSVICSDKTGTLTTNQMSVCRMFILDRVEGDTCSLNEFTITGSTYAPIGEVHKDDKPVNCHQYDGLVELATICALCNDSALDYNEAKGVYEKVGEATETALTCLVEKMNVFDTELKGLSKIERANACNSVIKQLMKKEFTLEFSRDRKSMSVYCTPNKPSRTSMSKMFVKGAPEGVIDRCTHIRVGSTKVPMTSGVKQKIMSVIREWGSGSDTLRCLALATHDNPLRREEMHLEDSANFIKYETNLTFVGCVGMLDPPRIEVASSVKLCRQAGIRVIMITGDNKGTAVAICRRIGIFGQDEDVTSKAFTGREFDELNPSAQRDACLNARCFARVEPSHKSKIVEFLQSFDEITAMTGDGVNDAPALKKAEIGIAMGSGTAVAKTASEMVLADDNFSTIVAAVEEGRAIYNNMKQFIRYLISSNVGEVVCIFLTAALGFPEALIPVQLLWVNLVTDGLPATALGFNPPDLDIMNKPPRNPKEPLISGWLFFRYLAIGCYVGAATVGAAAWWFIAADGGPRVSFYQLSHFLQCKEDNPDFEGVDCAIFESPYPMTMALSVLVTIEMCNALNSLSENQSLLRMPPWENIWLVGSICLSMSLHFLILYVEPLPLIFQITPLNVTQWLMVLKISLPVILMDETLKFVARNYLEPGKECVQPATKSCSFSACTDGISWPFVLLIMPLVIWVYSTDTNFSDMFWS

In the case of `Cc1ccc2cccc(NC(=O)c3ccc(OC(C)C)cc3)c2n1` [CDN-1163, N-(2-methylquinolin-8-yl)-4-propan-2-yloxybenzamide], the IFN-β gene expression entry in [1] is reported as “inhibits”.

Regarding `CC(=O)C1=C(O)[C@@H]2[C@H]3c4c[nH]c5cccc(c45)C[C@H]3C(C)(C)N2C1=O` [CPA, (6aR,11aS,11bR)-10-Acetyl-11-hydroxy-7,7-dimethyl-2,6,6a,7,11a,11b-hexahydro-9H-pyrrolo[1′,2′:2,3]isoindolo[4,5,6-cd]indol-9-one], the IC50 in series [2] is less than 2500 nM. Moreover, in series [3], the “CXCL10 mRNA levels” value is given as “increase”, the “IFN-β mRNA levels” value is “increase” and the “ISG15 mRNA levels” value was “increase”.

As for `C/C=C(/C)C(=O)O[C@H]1C(C)=C2[C@H]([C@@H]1OC(=O)CCCCCCC)[C@@](C)(OC(C)=O)C[C@H](OC(=O)CCC)[C@@]1(O)[C@H]2OC(=O)[C@@]1(C)O` [Thapsigargin, (3S,3aR,4S,6S,6aR,7S,8S,9bS)-6-(Acetyloxy)-4-(butyryloxy)-3,3a-dihydroxy-3,6,9-trimethyl-8-{[(2Z)-2-methylbut-2-enoyl]oxy}-2-oxo-2,3,3a,4,5,6,6a,7,8,9b-decahydroazuleno[4,5-b]furan-7-yl octanoate], the “induced inflammation marker CXCL10 cytokine” value in series [4] and in series [7] was “potentiation” in each case. In [2], the IC50 is less than 15 nM. For the same compound, the “macroscopic observation of skin at the injection site (signs of toxicity)” value in series [5] is “did not display signs of toxicity”. The “induced inflammation marker Interferon-β (IFN-β)” value in [6] is “potentiation”. Also, the “cell toxicity (viability level)” value in [8], in series [9] and in [10] was “low cell toxicity” throughout. The “CXCL10 mRNA levels” value in series [3] was “increase”. Moreover, the “IFN-β mRNA levels” value in [3] is recorded as “increase”. Besides, in series [3], the “ISG15 mRNA levels” value is on record as “increase”.

With `Nc1ncnc2c1ncn2[C@@H]1O[C@@H]2COP(=O)([S-])O[C@@H]3[C@H](O)[C@@H](COP([O-])(=S)O[C@H]2[C@H]1O)O[C@H]3n1cnc2c(N)ncnc21.[Na+].[Na+]` (some centres unmarked) [ADU-S100], the “macroscopic observation of skin at the injection site (signs of toxicity)” value in [5] was “did not display signs of toxicity”. The “cell toxicity (viability level)” value in series [8], in series [9] and in series [10] was “low cell toxicity” each time.
